These results are taken from US20230339927A1, “ATR INHIBITORS AND USES THEREOF” (ANTENGENE DISCOVERY LIMITED, priority 2020, published 2023).

The target in one experiment is T1, ATR kinase (Homo sapiens, UniProt Q13535).
T1 construct: purchased Eurofins 14-953
Briefly: ATR inhibition assay (mobility shift assay, FAM-RAD17 phosphorylation). In kind it is biochemical. The settings on record: substrate FAM-RAD17, ATR kinase (Eurofins). As to the method:
Assay 1: ATR Inhibition Assay
The assay was developed and conducted at Chempartner. All the test compounds were dissolved in 100% DMSO at concentration of 20 mM, then prepare compounds and conducted the assay as follows:
1) Transfer 80 µl20 mM compound to 40 µl of 100% DMSO in a 96-well plate.
2) Serially dilute the compound by transferring 20 µl to 60 µl of 100% DMSO in the next well and so forth for a total of 10 concentrations.
3) Add 100 µl of 100% DMSO to two empty wells for no compound control and no enzyme control in the same 96-well plate. Mark the plate as source plate.
4) Transfer 40 µl of compound from source plate to a new 384-well plate as the intermediate plate.
5) Transfer 60 nl compounds to assay plate by Echo.
No. D14JP007N) into Kinase base buffer (50 mM HEPES, pH 7.5; 0.0015% Brij-35; 0.01% Triton) to prepare 2x enzyme solution, then add 10 µl of 2x enzyme solution to each well of the 384-well assay plate, incubate at room temperature for 10 min.
8) Incubate at 28° C. for specified period of time. Add 40 µl of stop buffer (100 mM HEPES, pH 7.5; 0.015% Brij-35; 0.2% Coating Reagent #3; 50 mM EDTA) to stop reaction.
9) Collect data on Caliper. Convert conversion values to inhibition values.
wherein “max” stands for DMSO control; “min” stands for low control.
Fit the data in XLFit excel add-in version 5.4.0.8 to obtain IC50 values. Equation used is: […]
wherein X means concentration in a format not transformed to logarithms.

Experiment [1] has as its system LoVo (CCL-229) human colorectal cancer cells. Description: Tumor cell anti-proliferation assay (CTG assay). The format is cell-based. Particulars: 96 h incubation, CellTiter-Glo, IC50 (Y=50%). The source says: Assay 2: Tumor Cell Anti-proliferation Assay (CTG Assay)
Human colorectal cancer cells HT-29 (HTB-38) and LoVo (CCL-229) were selected for the CTG assay, the two cell lines were originally obtained from the American Type Culture Collection (ATCC). Add FBS and appropriate additives into base medium to prepare complete medium, then briefly rinse the cell layer with 0.25% (w/v) Trypsin-0.038% (w/v) EDTA solution to remove all traces of serum that contains trypsin inhibitor, after that, add appropriate volume of Trypsin-EDTA solution to flask and observe cells under an inverted microscope until cell layer is dispersed, at last, add appropriate volume of complete growth medium and aspirate cells by gently pipetting. Collect and count numbers with Vi-cell XR and adjust cell density, seed cells into 96-well opaque-walled clear bottom tissue-culture treated plates in the CO2 incubator for 20-24 hours. All the test compounds will be at 10 mM in DMSO. Compounds are then added to the cell media in 3-fold serial dilutions, the final DMSO concentration is 0.5%. Incubate plates for 96 h at 5% CO2, 37° C. Before the measurement, transfer the appropriate volume of CellTiter-Glo Buffer into the amber bottle containing CellTiter-Glo substrate to reconstitute the lyophilized enzyme/substrate mixture, mix gently, this forms the CellTiter-Glo Reagent (Promega Cat. No. G7573). Equilibrate the plate and its contents to room temperature for approximately 30 minutes, then add 100 µL of CellTiter-Glo Reagent to the assay plate, mix contents for 2 minutes on an orbital shaker to induce cell lysis, incubate at room temperature for 10 minutes to stabilize luminescent signal, at last paste the clear bottom with white back seal and record luminescence with Enspire. IC50 and GI50 values were calculated with XLFit curve fitting software using 4 Parameter Logistic Model Y=Bottom + (Top-Bottom)/(1+(IC50/X)^HillSlope).
The following Table 3 provides the IC50 (Y=50%) values for exemplary compounds of Formula (I).

T1 sequence (Q13535 whole entry): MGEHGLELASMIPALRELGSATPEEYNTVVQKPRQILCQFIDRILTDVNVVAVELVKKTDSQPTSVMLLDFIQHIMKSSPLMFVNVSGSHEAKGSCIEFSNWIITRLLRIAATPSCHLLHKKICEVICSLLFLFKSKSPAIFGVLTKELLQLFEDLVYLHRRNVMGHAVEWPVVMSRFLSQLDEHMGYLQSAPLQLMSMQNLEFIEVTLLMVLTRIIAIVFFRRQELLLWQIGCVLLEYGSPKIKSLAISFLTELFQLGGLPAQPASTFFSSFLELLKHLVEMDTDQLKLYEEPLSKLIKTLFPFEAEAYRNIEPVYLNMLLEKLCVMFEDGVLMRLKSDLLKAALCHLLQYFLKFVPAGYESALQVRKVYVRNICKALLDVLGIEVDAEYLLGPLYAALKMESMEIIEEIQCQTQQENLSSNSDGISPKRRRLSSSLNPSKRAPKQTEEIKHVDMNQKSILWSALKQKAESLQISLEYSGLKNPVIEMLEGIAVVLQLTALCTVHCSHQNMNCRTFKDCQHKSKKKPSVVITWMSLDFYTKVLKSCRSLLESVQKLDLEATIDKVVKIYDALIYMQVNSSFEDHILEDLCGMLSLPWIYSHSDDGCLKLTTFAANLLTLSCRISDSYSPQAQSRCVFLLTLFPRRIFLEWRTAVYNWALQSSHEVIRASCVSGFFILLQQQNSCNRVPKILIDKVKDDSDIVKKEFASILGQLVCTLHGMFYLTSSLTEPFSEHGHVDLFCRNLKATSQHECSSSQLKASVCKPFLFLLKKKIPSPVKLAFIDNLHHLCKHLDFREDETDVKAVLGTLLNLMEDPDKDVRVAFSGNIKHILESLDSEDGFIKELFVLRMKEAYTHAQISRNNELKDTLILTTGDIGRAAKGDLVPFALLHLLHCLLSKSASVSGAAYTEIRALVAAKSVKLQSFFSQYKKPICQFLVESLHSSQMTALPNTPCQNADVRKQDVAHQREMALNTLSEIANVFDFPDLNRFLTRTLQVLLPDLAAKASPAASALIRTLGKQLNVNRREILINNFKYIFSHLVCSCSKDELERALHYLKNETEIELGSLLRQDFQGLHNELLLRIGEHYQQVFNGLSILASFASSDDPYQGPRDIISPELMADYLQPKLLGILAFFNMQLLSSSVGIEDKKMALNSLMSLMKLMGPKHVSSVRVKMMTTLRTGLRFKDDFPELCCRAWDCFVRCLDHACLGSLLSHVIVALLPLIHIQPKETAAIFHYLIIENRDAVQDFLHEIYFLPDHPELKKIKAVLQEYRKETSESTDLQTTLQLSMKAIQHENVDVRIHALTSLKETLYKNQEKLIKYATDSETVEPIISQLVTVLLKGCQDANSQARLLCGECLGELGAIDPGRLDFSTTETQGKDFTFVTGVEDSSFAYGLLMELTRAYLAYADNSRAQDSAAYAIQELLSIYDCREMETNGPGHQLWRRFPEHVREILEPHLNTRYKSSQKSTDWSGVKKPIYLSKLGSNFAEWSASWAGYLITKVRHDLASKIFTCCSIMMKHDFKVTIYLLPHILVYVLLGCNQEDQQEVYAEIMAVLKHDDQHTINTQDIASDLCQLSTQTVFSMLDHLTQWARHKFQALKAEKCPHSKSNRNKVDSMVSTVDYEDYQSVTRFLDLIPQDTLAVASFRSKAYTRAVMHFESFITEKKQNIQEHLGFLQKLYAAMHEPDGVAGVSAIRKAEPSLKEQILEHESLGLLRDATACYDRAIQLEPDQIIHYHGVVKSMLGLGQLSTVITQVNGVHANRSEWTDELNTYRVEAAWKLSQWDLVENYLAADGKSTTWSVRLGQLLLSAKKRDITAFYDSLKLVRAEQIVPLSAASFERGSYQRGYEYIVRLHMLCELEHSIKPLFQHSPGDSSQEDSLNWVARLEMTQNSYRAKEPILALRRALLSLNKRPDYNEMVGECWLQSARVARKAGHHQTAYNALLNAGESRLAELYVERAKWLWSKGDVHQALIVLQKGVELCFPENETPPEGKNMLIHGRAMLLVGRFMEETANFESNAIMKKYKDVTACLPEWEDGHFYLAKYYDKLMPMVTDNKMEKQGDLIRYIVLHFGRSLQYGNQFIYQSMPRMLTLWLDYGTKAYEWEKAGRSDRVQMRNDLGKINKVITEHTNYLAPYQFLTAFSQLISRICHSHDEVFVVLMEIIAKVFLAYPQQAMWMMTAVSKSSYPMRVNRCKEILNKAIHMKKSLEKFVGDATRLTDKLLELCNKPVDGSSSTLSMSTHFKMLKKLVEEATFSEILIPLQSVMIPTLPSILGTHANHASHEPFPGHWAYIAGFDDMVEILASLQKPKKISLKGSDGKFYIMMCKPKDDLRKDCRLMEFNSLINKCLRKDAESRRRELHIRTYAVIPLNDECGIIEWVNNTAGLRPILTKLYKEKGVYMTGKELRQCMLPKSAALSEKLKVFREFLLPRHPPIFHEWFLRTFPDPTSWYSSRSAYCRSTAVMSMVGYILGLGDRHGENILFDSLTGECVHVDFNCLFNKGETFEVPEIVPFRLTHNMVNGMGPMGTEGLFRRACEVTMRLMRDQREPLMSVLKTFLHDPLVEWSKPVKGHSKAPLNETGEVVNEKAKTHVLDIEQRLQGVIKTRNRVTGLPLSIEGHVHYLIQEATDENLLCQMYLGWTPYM
T1 sequence (Q8WXE1 whole entry partner): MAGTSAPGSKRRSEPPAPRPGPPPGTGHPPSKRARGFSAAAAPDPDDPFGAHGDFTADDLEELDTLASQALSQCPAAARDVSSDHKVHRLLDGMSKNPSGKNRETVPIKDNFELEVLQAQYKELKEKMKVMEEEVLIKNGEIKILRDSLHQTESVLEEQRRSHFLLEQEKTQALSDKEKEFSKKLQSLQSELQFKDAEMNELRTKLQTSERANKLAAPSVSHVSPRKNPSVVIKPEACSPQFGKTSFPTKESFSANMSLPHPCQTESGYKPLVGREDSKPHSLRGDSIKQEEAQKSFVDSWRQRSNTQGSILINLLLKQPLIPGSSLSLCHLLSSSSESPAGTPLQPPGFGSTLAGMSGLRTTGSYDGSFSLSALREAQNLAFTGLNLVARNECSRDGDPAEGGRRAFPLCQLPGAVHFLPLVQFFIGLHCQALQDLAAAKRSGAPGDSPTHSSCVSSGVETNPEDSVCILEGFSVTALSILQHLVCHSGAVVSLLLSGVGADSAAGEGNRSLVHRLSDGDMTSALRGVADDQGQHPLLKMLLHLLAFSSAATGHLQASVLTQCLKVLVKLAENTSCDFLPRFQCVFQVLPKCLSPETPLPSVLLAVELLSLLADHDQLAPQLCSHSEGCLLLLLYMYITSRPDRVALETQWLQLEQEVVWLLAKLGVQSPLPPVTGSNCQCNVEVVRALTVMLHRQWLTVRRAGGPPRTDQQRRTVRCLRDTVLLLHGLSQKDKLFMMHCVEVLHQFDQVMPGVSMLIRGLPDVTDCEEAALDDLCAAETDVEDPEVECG

Turning to `Cc1cc(Nc2cc(-c3c(C)nnn3C)cc(N3CCOC[C@H]3C)n2)[nH]n1` [Compound 23, 4-(dimethyl-1H-1,2,3-triazol-5-yl)-N-(3-methyl-1H-pyrazol-5-yl)-6-[(3R)-3-methylmorpholin-4-yl]pyridin-2-amine], the figures for the IC50 (at ATR kinase; in experiment [1]) were 15.5 nM and 388 nM, respectively.
Taken in the same sequence, the figures for `C[C@@H]1COCCN1c1cc(C(C)(C)C#N)cc(Nc2ccn[nH]2)n1` [Compound 24, (R)-2-(2-((1H-pyrazol-5-yl)amino)-6-(3-methylmorpholino)pyridin-4-yl)-2-methylpropanenitrile] were 17 nM and 428 nM.
Consider `Cc1cc(Nc2cc(C(C)(C)C#N)cc(N3CCOC[C@H]3C)n2)[nH]n1` [Compound 25, 2-methyl-2-{2-[(3-methyl-1H-pyrazol-5-yl)amino]-6-[(3R)-3-methylmorpholin-4-yl]pyridin-4-yl}propanenitrile], for which the IC50 at ATR kinase was determined as 11.8 nM; in experiment [1], 309 nM.
As for `C[C@@H]1COCCN1c1cc(C(C)(C)S(C)(=O)=O)cc(Nc2ccn[nH]2)n1` [Compound 26, (R)-6-(3-methylmorpholino)-4-(2-(methylsulfonyl)propan-2-yl)-N-(1H-pyrazol-5-yl)pyridin-2-amine], the IC50 on ATR kinase amounted to 22 nM; in experiment [1], 517 nM.
Taken in the same sequence, the figures for `Cc1cc(Nc2cc(C(C)(C)S(C)(=O)=O)cc(N3CCOC[C@H]3C)n2)[nH]n1` [Compound 27, 4-(2-methanesulfonylpropan-2-yl)-N-(3-methyl-1H-pyrazol-5-yl)-6-[(3R)-3-methylmorpholin-4-yl]pyridin-2-amine] were 15.7 nM and 564 nM.
Taken in the same sequence, the figures for `C[C@@H]1COCCN1c1cc(C(C)(C)C#N)nc(Nc2ccn[nH]2)n1` [Compound 28, (R)-2-(2-((1H-pyrazol-5-yl)amino)-6-(3-methylmorpholino)pyrimidin-4-yl)-2-methylpropanenitrile] were 30.4 nM and 406 nM.
Turning to `Cc1cc(Nc2cc(C3(C#N)CC3)cc(N3CCOC[C@H]3C)n2)[nH]n1` [Compound 35, 1-{2-[(3-methyl-1H-pyrazol-5-yl)amino]-6-[(3R)-3-methylmorpholin-4-yl]pyridin-4-yl}cyclopropane-1-carbonitrile], the IC50 is 33.3 nM on ATR kinase and 718 nM in experiment [1].
As for `C[C@@H]1COCCN1c1cc(C2(C#N)CCCCC2)cc(Nc2ccn[nH]2)n1` [Compound 38, 1-{2-[(3R)-3-methylmorpholin-4-yl]-6-[(1H-pyrazol-5-yl)amino]pyridin-4-yl} cyclohexane-1-carbonitrile], the results for the IC50 (on ATR kinase; in experiment [1]) were 12.3 nM and 492 nM, respectively.
In the same order, the values of `C[C@@H]1COCCN1c1cc(C2(C#N)CCCCC2)nc(Nc2ccn[nH]2)n1` [Compound 41, (R)-1-(2-((1H-pyrazol-5-yl)amino)-6-(3-methylmorpholino)pyrimidin-4-yl)cyclohexane-1-carbonitrile] are 2.5 nM and 370 nM.
Taken in the same sequence, the figures for `C[C@@H]1COCCN1c1cc(C2(C#N)CCOCC2)nc(Nc2ccn[nH]2)n1` [Compound 42, (R)-4-(2-((1H-pyrazol-5-yl)amino)-6-(3-methylmorpholino)pyrimidin-4-yl) tetrahydro-2H-pyran-4-carbonitrile] were 19.7 nM and 640 nM.
Taken in the same sequence, the figures for `C[C@@H]1COCCN1c1cc(C2(O)CCCCC2)cc(Nc2ccn[nH]2)n1` [Compound 43, (R)-1-(2-((1H-pyrazol-5-yl)amino)-6-(3-methylmorpholino)pyridin-4-yl) cyclohexan-1-ol] were 52.7 nM and 653 nM.
